What all share (settings): in vivo
A short description of data set [1]: Half life of compound in Sprague-Dawley rat at 1 mg/kg, iv and 2 mg/kg, po. It counts as ADME, organism-based.
Data set [2] can be described thus: Oral bioavailability in Sprague-Dawley rat at 2 mg/kg. It counts as ADME, organism-based.
The test system of the next data set is Rattus norvegicus. The data set can be described thus: Dose normalized AUC in Sprague-Dawley rat at 2 mg/kg, po. It counts as ADME, organism-based.
Data set [3] in a line: Oral bioavailability in rhesus monkey at […]. It counts as ADME, organism-based, Macaca mulatta.
Data set [4] in a line: Half life of compound in rhesus monkey at 0.25 mg/kg, iv and 0.5 mg/kg, po. It is filed as ADME, organism-based, Macaca mulatta.
The next data set has as its system Canis familiaris. Nature of the data set: fCmax in vagotomized beagle dog at 10 mg/kg, iv administered as cumulative dose. It is filed as ADME, organism-based, Canis lupus familiaris.
For a further data set, the system named is Rhesus monkey. The data set can be described thus: Dose normalized AUC in rhesus monkey at 0.5 mg/kg, po. It is filed as ADME, organism-based, Macaca mulatta.
Data set [5] can be described thus: Half life of compound in beagle dog at 0.5 mg/kg, iv. It is filed as ADME, organism-based, Canis lupus familiaris.

Here are results for 5 compounds from ChEMBL document CHEMBL3792353, “Differentiation of ROMK potency from hERG potency in the phenacetyl piperazine series through heterocycle incorporation” (Bioorg Med Chem Lett, 2016).

As to `Cc1cc(-n2cnnn2)cnc1CC(=O)N1CCN(CCc2ccc3c(c2C)COC3=O)CC1`, the half-life (commonly how long it takes for the measured level to halve) in data set [1] was 19.8 min. Also, in data set [2], the bioavailability (commonly the share of a dose that reaches the circulation, judged against a reference dose that is usually intravenous) is 18%. The same compound came in with an AUC/dose in the data set on Rattus norvegicus of 0.35 µM·kg·h/mg.

Regarding `Cc1c(CCN2CCN(C(=O)Cc3ccc(-n4cnnn4)nc3)CC2)ccc2c1COC2=O`, the bioavailability in data set [3] was below 1%; in data set [2], 38%. Also, the half-life in data set [4] was 66 min; in data set [1], 26.4 min; in data set [5] it was 78 min. The fCmax with Canis familiaris amounted to 21 µM. In addition, the results for the AUC/dose in the data set on Rhesus monkey and with Rattus norvegicus were 0.001 µM·kg·h/mg and 0.84 µM·kg·h/mg, respectively.

The compound `O=C1OCc2cc(CCN3CCN(C(=O)Cc4ccc(-n5cnnn5)cc4)CC3)ccc21` showed a half-life in data set [1] of 9.6 min. The same compound returned an AUC/dose in the data set with Rattus norvegicus of 0.067 µM·kg·h/mg.

In turn, `Cc1c(C(F)CN2CCN(C(=O)Cc3ccc(-n4cnnn4)nc3)CC2)ccc2c1COC2=O` (racemic) had a half-life in data set [1] of 21 min. In data set [2], the bioavailability amounted to 46%. Moreover, in the data set with Rattus norvegicus, the AUC/dose was 0.31 µM·kg·h/mg.

As to `Cc1c(C(C)CN2CCN(C(=O)Cc3ccc(-n4cnnn4)nc3)CC2)ccc2c1COC2=O` (racemic), the half-life in data set [1] is 57.6 min. The compound also showed a bioavailability in data set [2] of 25%. This compound returned an AUC/dose in the data set on Rattus norvegicus of 0.45 µM·kg·h/mg.
